These results are taken from patent US20170340693A1, “DISLODGEMENT AND RELEASE OF HSC USING ALPHA 9 INTEGRIN ANTAGONIST AND CXCR4 ANTAGONIST” (COMMONWEALTH SCIENTIFIC AND INDUSTRIAL RESEARCH ORGANISATION, priority 2014, published 2017).

Experiment [1] deals with HSC and progenitors isolated from human BM. Briefly: R-BC154 (IXb) binding to human BM cells. It is filed as cell-based. To be noted: Ca2+/Mg2+. The procedure:
(§1) For the assessment of α9β1 contribution to R-BC154 (IXb) binding, human and murine cells were stained with R-BC154 (100 nM) in the absence of competing antagonist or in the presence of excess amounts of the selective α4β1 antagonist BIO5192 (1 μM) or dual α4β1/α9β1 antagonist BOP (1 μM) in PBS containing 0.5% BSA and 1 mM CaCl2MgCl2 at 0° C. for 30 min. Cells were washed, immunolabelled as described above and analysed by flow cytometry. The contribution of α9β1 binding was calculated by measuring the difference in MFI between R-BC154 (IXb)+BIO5192 and +BOP and expressed as a % of R-BC154 (IXb) alone.

For experiment [2], the system named is human BM committed cells, progenitors and HSC of huNSG mice. Briefly: R-BC154 (IXb) binding to humanized NSG (huNSG) BM. In kind it is cell-based. To be noted: Ca2+/Mg2+. Here is the method:
(§2) For in vitro labelling experiments, 5×10^6 BM cells from C57 mice, conditional α4^−/−/α9^−/− mice and humanised NODSCIDIL2Rγ^−/− mice and human cord blood MNCs were treated with R-BC154 (IXb) (up to 300 nM) in PBS (0.5% BSA) or TBS (0.5% BSA) containing either 1 mM CaCl2/MgCl2 (activating) or 10 mM EDTA (deactivating) at 40×10^6 cells/ml for 20 mins at 4° C. Cells were washed with cold PBS (2% FBS) and then immunolabelled as described in “Antibody Cocktails” prior to flow cytometric analysis. For in vivo experiments, C57BL/6 mice, α4^−/−/α9^−/− vav-cre mice and humanised NODSCIDIL2Rγ^−/− mice received either intravenous or subcutaneous injections of R-BC154 (IXb) (5-10 mg/kg) at 100 ul/10 gm mouse weight and analysed as described above.
as §1

The subject of experiment [3] is progenitors (LSK) and HSC (LSKSLAM) in peripheral blood. Briefly: HSC mobilization to peripheral blood in mice. In kind it is in vivo. Particulars: single agent, single dose. The procedure: For mobilization experiments, all mice received subcutaneous injections at 100 μl/10 gm body weight and PB was harvested by throat bleed using EDTA coated syringes.
(a) R-BC154 (IXb) and BOP. Mice received a single injection of freshly prepared solutions of R-BC154 (IXb) and BOP in saline at the doses indicated before PB was harvested by throat bleed at the times indicated.
(b) G-CSF. Mice received G-CSF at 250 μg/kg twice daily (500 ug/kg/day), 6-8 hours apart for 4 consecutive days. Groups receiving G-CSF and BOP received the standard G-CSF regime as described above followed by a single injection of BOP 1 h prior to harvest. Control mice received an equal volume of saline.
Mice received subcutaneous injections at 100 μl/10 gm body weight of a single injection of BOP (up to 15 mg/kg) for various timeframes, a single BIO5192 injection at 1 mg/kg for 1 hour, a single AMD3100 injection at 3 mg/kg for 1 hour (mice also receiving BOP or BIO15192 were injected with a single dose of BOP or BIO15192 1 hour prior to harvest), or G-CSF at 250 μg/kg twice daily (500 μg/kg/day), 6-8 hours apart for 4 consecutive days (mice also receiving BOP and/or AMD3100 were injected with a single dose of BOP and/or AMD3100 1 h prior to harvest). Control mice received an equivalent volume of saline or 10% HPβCD/saline where appropriate.

In experiment [4] the target is α9β1 integrin (Homo sapiens, UniProt P05556+Q13797). Briefly: In vitro (saturation) binding of R-BC154. Details: expressed in transfected cells; host or cells: LN18 (ATCC CRL-2610), retrovirally transduced; endogenous α4 silenced with pSM2c-shITGA4. To be noted: in vitro binding data. Here is the method:
(§3) Cultured α4β1, α9β1 and control LN18 cells (0.5×10^6 cells) were treated with 100 μl of compound (R-BC154) at 0, 1, 3, 10, 30 and 100 nM in TBS-2% FBS (containing either no cations, 1 mM CaCl2—MgCl2 or 1 mM MnCl2). The cells were incubated at 37° C. for 60 min, washed once with TBS-2% FBS, dry pelleted and resuspended in the relevant binding buffer for flow cytometric analysis. Mean channel fluorescence was plotted against concentration and fitted to a one-site saturation ligand binding curve using GraphPad Prism 6. The dissociation constant, Kd was determined from the curves.

For experiment [5], the target named is α4β1 integrin (Homo sapiens, UniProt P05556+P13612). Briefly: In vitro (saturation) binding of R-BC154. Details: expressed in transfected cells; host or cells: LN18 (ATCC CRL-2610), retrovirally transduced. To be noted: in vitro binding data. The procedure: as §3
Experiment [6] concerns cord blood (CB) mononuclear cells (MNC). Put plainly: R-BC154 (IXb) binding to cord blood mononuclear cell populations, flow cytometry. In kind it is cell-based, human. To be noted: 1 mM Ca2+/Mg2+. Here is the method:
as §2, §1
(A flow cytometer gives signals particle by particle.)

Chain of α4β1 integrin (P13612 34-1032): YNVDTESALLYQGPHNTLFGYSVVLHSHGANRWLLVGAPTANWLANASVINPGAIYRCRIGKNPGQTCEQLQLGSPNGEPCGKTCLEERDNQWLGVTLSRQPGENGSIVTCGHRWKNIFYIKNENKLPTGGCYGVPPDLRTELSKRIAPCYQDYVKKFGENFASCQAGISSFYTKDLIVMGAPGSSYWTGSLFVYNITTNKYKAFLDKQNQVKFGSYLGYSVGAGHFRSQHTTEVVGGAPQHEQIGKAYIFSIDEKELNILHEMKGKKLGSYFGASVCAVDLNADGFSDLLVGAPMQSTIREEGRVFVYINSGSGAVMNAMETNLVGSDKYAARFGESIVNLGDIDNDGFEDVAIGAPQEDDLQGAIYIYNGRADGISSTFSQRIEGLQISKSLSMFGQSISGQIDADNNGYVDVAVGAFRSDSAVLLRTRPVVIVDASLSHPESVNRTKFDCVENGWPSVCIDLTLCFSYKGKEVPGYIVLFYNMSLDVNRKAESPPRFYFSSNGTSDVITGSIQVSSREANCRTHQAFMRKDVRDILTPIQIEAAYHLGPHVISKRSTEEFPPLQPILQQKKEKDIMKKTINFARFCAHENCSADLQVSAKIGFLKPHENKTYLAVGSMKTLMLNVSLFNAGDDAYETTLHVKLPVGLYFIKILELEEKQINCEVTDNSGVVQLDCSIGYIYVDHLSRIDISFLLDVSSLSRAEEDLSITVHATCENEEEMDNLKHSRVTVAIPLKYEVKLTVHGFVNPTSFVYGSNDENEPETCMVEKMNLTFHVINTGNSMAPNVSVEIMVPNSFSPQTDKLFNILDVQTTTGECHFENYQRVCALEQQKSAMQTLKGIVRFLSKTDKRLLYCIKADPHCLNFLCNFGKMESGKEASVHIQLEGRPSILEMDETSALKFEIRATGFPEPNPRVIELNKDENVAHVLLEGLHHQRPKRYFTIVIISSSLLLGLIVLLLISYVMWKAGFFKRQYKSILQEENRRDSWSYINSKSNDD
Chain of α4β1 integrin (P05556 21-798): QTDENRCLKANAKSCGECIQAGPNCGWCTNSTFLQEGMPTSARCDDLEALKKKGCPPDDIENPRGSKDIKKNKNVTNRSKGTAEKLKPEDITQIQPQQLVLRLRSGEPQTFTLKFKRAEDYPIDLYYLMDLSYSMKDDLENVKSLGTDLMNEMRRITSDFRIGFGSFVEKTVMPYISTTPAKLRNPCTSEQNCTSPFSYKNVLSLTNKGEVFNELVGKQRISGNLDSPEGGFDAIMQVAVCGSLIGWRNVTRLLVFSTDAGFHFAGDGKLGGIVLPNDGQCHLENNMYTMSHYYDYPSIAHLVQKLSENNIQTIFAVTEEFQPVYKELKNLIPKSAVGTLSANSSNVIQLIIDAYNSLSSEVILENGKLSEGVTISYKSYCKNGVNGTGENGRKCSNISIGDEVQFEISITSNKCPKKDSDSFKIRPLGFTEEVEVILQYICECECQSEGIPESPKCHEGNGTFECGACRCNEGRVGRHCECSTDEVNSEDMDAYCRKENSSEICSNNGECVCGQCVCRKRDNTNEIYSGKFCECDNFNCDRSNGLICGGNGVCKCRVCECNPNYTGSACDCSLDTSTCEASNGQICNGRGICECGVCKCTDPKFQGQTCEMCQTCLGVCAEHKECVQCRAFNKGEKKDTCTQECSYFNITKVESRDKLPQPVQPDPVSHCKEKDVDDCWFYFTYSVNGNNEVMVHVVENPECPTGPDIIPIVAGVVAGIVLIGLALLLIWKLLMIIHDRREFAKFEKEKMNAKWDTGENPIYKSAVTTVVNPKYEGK
Chain of α9β1 integrin (Q13797 30-1035): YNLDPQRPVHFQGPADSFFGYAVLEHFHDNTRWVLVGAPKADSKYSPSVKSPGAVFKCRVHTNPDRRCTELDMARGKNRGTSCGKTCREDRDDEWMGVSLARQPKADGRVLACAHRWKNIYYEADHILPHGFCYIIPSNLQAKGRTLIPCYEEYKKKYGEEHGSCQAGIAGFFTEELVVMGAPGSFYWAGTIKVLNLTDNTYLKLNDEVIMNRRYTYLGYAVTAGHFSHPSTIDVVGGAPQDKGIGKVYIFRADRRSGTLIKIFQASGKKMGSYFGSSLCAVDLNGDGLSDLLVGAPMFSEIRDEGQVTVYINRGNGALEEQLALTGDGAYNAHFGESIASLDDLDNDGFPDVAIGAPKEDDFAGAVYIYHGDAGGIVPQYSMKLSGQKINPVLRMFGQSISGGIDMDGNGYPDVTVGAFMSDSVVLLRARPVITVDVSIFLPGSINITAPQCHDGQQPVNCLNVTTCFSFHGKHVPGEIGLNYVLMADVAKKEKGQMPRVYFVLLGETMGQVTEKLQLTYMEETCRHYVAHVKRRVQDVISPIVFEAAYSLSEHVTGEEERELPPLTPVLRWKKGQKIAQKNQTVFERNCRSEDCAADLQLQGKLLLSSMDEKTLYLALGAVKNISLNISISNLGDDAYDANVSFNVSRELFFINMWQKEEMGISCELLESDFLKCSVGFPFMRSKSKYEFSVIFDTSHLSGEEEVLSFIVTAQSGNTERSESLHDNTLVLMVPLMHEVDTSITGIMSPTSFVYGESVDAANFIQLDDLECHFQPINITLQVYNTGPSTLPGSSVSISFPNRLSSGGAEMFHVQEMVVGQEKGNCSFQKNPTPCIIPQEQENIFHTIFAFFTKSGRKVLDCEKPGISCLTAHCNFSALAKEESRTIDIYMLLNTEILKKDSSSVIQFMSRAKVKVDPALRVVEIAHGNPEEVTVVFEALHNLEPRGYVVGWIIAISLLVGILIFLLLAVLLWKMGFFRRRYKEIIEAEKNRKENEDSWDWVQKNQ
Chain of α9β1 integrin (P05556 21-798): as the sequence (P05556 21-798) above

As to `CCN(CC)c1ccc2c(-c3ccc(S(=O)(=O)NCc4cn(C5C[C@@H](C(=O)N[C@@H](Cc6ccc(OC(=O)N7CCCC7)cc6)C(=O)O)N(S(=O)(=O)c6ccccc6)C5)nn4)cc3S(=O)(=O)[O-])c3ccc(=[N+](CC)CC)cc-3oc2c1` (stereo partly shown) [R-BC154 (IXb)], in experiment [1], the “binding to HSC and progenitors isolated from human BM” value is reported as “efficiently bound”. The “binding through α9β1 on huNSG BM committed cells, progenitors and HSC” value in experiment [2] is on record as “significant binding through α9β1 only occurred on HSC”. For the same molecule, in experiment [3], the “increase in PB progenitors (LSK) and HSC (LSKSLAM)” value is reported as “moderate increases”. In addition, in experiment [4], the “affinity for α9β1 integrin” value is “high affinity”. In experiment [5], the “affinity for α4β1 integrin” value is “high affinity”. Further, in experiment [6], the “binding to CB HSC (CD34+CD38−) and progenitors (CD34+CD38+)” value is listed as “high”; the “binding to CB lineage committed cells (CD34−CD38+)” value was “modest”.
